This assay addresses hMC2 receptor (Homo sapiens, UniProt Q01718). Briefly: hMC2 membrane binding assay ([125I]ACTH (1-39) Tyr23, SPA). Particulars: crude hMC2R membranes from CRE-bla-CHO-K1 cells expressing hMC2 receptor and hMRAP; [125I]ACTH (1-39) Tyr23 0.2 nM; 1.5 hours at room temperature; read-out: MC2R binding potency. More on the design: scale not given here. In outline: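 Ki comes from non-linear regression of SPA scintillation counts. Displacement of 0.2 nM [125I]ACTH(1-39) Tyr23 by compound dose series (usually 0–10,000 nM final) ran 1.5 h at room temperature. Membranes came from CHO-K1 CRE-bla cells stably expressing hMC2R plus hMRAP, bead-coupled in pH 7.4 buffer with 0.2% BSA.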
Sequence of hMC2 receptor (Q01718 whole entry): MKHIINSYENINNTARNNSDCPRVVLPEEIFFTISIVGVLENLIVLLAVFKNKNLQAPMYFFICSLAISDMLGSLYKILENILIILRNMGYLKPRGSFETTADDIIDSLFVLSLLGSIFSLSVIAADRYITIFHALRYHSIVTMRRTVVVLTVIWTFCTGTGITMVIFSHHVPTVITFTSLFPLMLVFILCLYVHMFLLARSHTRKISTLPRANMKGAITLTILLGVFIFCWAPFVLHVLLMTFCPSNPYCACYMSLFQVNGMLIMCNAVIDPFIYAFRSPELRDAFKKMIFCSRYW
Sequence of hMC2 receptor (Q8TCY5 whole entry partner): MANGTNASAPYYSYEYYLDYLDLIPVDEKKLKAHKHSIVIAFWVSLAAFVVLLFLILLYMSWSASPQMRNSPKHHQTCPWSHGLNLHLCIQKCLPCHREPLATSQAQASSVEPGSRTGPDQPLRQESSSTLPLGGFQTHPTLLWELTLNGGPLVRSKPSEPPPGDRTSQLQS
For `CCOc1ncccc1-c1ccc(N2CCN(C(=O)c3ccc(OC)nc3C(F)(F)F)C[C@H]2CC)c(C(=O)N[C@@H]2CCNC2)c1F` [Compound 1-271, 3-(2-ethoxypyridin-3-yl)-6-[(2R)-2-ethyl-4-[6-methoxy-2-(trifluoromethyl)pyridine-3-carbonyl]piperazin-1-yl]-2-fluoro-N-[(3R)-pyrrolidin-3-yl]benzamide], the Ki is < 0.01 µM.
Then `CCOc1ncccc1-c1ccc(N2CCN(C(=O)C3(C(F)(F)F)CC4CCC3C4)C[C@H]2CC)c(C(=O)N[C@@H]2CCNC2)n1` (stereo partly drawn) [Compound 1-297, 2′-ethoxy-5-[(2R)-2-ethyl-4-[2-(trifluoromethyl)bicyclo[2.2.1]heptane-2-carbonyl]piperazin-1-yl]-N-[(3R)-pyrrolidin-3-yl]-[2,3′-bipyridine]-6-carboxamide], with < 0.01 µM.
Then `CCOc1ccccc1-c1ccc(N2CCN(C(=O)C3(C(F)(F)F)CCCC3)C[C@H]2CC)c(C(=O)NC2CN(C)C2)n1` [Compound 1-399, 6-(2-ethoxyphenyl)-3-[(2R)-2-ethyl-4-[1-(trifluoromethyl)cyclopentanecarbonyl]piperazin-1-yl]-N-(1-methylazetidin-3-yl)pyridine-2-carboxamide], with < 0.01 µM.
With `CCOc1ncccc1-c1ccc(N2CCN(C(=O)C3(C(F)(F)F)CCCC3)C[C@H]2CC)c(C(=O)NCC2(OC)CN(C)C2)n1` [Compound 1-334, 2′-ethoxy-5-[(2R)-2-ethyl-4-[1-(trifluoromethyl)cyclopentanecarbonyl]piperazin-1-yl]-N-[(3-methoxy-1-methylazetidin-3-yl)methyl]-[2,3′-bipyridine]-6-carboxamide] the figure was < 0.01 µM; with `CCOc1ncccc1-c1ccc(N2CCN(C(=O)c3ccc(F)cc3C(F)(F)F)C[C@H]2CC)c(C(=O)NCCc2ncc[nH]2)n1` [Compound 1-224, 2′-ethoxy-5-[(2R)-2-ethyl-4-[4-fluoro-2-(trifluoromethyl)benzoyl]piperazin-1-yl]-N-[2-(1H-imidazol-2-yl)ethyl]-[2,3′-bipyridine]-6-carboxamide], < 0.01 µM; with `CCOc1ccccc1-c1ccc(N2CCN(C(=O)c3ccc(C(F)(F)F)cc3Cl)C[C@H]2CC)c(C(=O)NCCCN)c1` [Compound 1-23, N-(3-aminopropyl)-4-[(2R)-4-[2-chloro-4-(trifluoromethyl)benzoyl]-2-ethylpiperazin-1-yl]-2′-ethoxy-[1,1′-biphenyl]-3-carboxamide], 0.01 to 0.1 µM.
As to `CCOc1ncccc1-c1ccc(N2CCN(C(=O)c3ccc(OC)nc3C(F)(F)F)C[C@H]2CC)c(C(=O)NCC2CN(C)C2)n1` [Compound 1-242, 2′-ethoxy-5-[(2R)-2-ethyl-4-[6-methoxy-2-(trifluoromethyl)pyridine-3-carbonyl]piperazin-1-yl]-N-[(1-methylazetidin-3-yl)methyl]-[2,3′-bipyridine]-6-carboxamide], the Ki was < 0.01 µM.
Then `CCOc1ncccc1-c1ccc(N2CCN(C(=O)C3(C(F)(F)F)CCC3)C[C@H]2CC)c(C(=O)N[C@@H]2CN3CCC2CC3)n1` [Compound 1-411, N-[(3S)-1-azabicyclo[2.2.2]octan-3-yl]-2′-ethoxy-5-[(2R)-2-ethyl-4-[1-(trifluoromethyl)cyclobutanecarbonyl]piperazin-1-yl]-[2,3′-bipyridine]-6-carboxamide], with < 0.01 µM.
As for `CC[C@@H]1CN(C(=O)c2ccc(C(F)(F)F)cc2Cl)CCN1c1ccc(-c2ccccc2C(=O)OC)cc1C(=O)NCCN` [Compound 1-19, methyl (R)-3′-((2-aminoethyl)carbamoyl)-4′-(4-(2-chloro-4-(trifluoromethyl)benzoyl)-2-ethylpiperazin-1-yl)-[1,1′-biphenyl]-2-carboxylate], the Ki is 0.01 to 0.1 µM.
Then `CCOc1ncccc1-c1ccc(N2CCN(C(=O)c3ccc(Cl)cc3C(F)(F)F)C[C@H]2CC)c(C(=O)NC2CN(C)C2)n1` [Compound 1-212, 5-[(2R)-4-[4-chloro-2-(trifluoromethyl)benzoyl]-2-ethylpiperazin-1-yl]-2′-ethoxy-N-(1-methylazetidin-3-yl)-[2,3′-bipyridine]-6-carboxamide], with < 0.01 µM.
Then `CCOc1ncccc1-c1ccc(N2CCN(C(=O)c3ccc(F)cc3C(F)(F)F)C[C@H]2CC)c(C(=O)NCCNC)n1` [Compound 1-136, 2′-ethoxy-5-[(2R)-2-ethyl-4-[4-fluoro-2-(trifluoromethyl)benzoyl]piperazin-1-yl]-N-[2-(methylamino)ethyl]-[2,3′-bipyridine]-6-carboxamide], with < 0.01 µM.
As to `CCOc1ncccc1-c1ccc(N2CCN(C(=O)C3(C(F)(F)F)CCCC3)C[C@H]2CC)c(C(=O)NC2CN(C)C2)n1` [Compound 1-241, 2′-ethoxy-5-[(2R)-2-ethyl-4-[1-(trifluoromethyl)cyclopentanecarbonyl]piperazin-1-yl]-N-(1-methylazetidin-3-yl)-[2,3′-bipyridine]-6-carboxamide], the Ki was < 0.01 µM.
As for `CCOc1ccccc1-c1ccc(N2CCN(C(=O)N3CCC[C@H]3C(F)(F)F)C[C@H]2CC)c(C(=O)N[C@@H]2CCN(C)C2)n1` [Compound 1-374, 6-(2-ethoxyphenyl)-3-[(2R)-2-ethyl-4-[(2S)-2-(trifluoromethyl)pyrrolidine-1-carbonyl]piperazin-1-yl]-N-[(3R)-1-methylpyrrolidin-3-yl]pyridine-2-carboxamide], the Ki was < 0.01 µM.
Then `CCOc1ncccc1-c1ccc(N2CCN(C(=O)c3ccc(F)cc3N3CC(N)C3)C[C@H]2CC)c(C(=O)NCCN(C)C)c1` [Compound 1-148, 2-[(2R)-4-[2-(3-aminoazetidin-1-yl)-4-fluorobenzoyl]-2-ethylpiperazin-1-yl]-N-[2-(dimethylamino)ethyl]-5-(2-ethoxypyridin-3-yl)benzamide], with < 0.01 µM; and `CCOc1ncccc1-c1ccc(N2CCN(C(=O)c3ccc(Cl)cc3C(F)(F)F)C[C@H]2CC)c(C(=O)NCC2=NCCN2)n1` [Compound 1-226, 5-[(2R)-4-[4-chloro-2-(trifluoromethyl)benzoyl]-2-ethylpiperazin-1-yl]-N-[(4,5-dihydro-1H-imidazol-2-yl)methyl]-2′-ethoxy-[2,3′-bipyridine]-6-carboxamide], with < 0.01 µM; and `CCOc1ncccc1-c1ccc(N2CCN(C(=O)c3ccc(Cl)cc3C#N)C[C@H]2CC)c(C(=O)NCCN)c1` [Compound 1-117, N-(2-aminoethyl)-2-[(2R)-4-(4-chloro-2-cyanobenzoyl)-2-ethylpiperazin-1-yl]-5-(2-ethoxypyridin-3-yl)benzamide], with < 0.01 µM.
Then `CCOc1ccccc1-c1ccc(N2CCN(C(=O)c3ccc(C(F)(F)F)cc3Cl)C[C@H]2CC)c(CNC[C@H](C)O)c1` [Compound 2-2, (2S)-1-[({4-[(2R)-4-[2-chloro-4-(trifluoromethyl)benzoyl]-2-ethylpiperazin-1-yl]-2′-ethoxy-[1,1′-biphenyl]-3-yl}methyl)amino]propan-2-ol], with < 0.01 µM; and `CCOc1ccccc1-c1ccc(N2CCN(C(=O)N3CCc4cccc(C#N)c43)C[C@H]2CC)c(C(=O)N[C@@H]2CCN(C)C2)n1` [Compound 1-393, 3-[(2R)-4-(7-cyano-2,3-dihydro-1H-indole-1-carbonyl)-2-ethylpiperazin-1-yl]-6-(2-ethoxyphenyl)-N-[(3R)-1-methylpyrrolidin-3-yl]pyridine-2-carboxamide], with < 0.01 µM.
Then `CCOc1ncccc1-c1ccc(N2CCN(C(=O)O[C@@H](C(C)(C)C)C(F)(F)F)C[C@H]2CC)c(C(=O)NCC2CN(C)C2)n1` (single isomer, unassigned) [Compound 1-396, (2S)-1,1,1-trifluoro-3,3-dimethylbutan-2-yl (3R)-4-(2′-ethoxy-6-{[(1-methylazetidin-3-yl)methyl]carbamoyl}-[2,3′-bipyridin]-5-yl)-3-ethylpiperazine-1-carboxylate; or (2R)-1,1,1-trifluoro-3,3-dimethylbutan-2-yl (3R)-4-(2′-ethoxy-6-{[(1-methylazetidin-3-yl)methyl]carbamoyl}-[2,3′-bipyridin]-5-yl)-3-ethylpiperazine-1-carboxylate], with < 0.01 µM.
As to `CCOc1ncccc1-c1ccc(N2CCN(C(=O)c3ccc(F)cc3N3CC[C@H](NC)C3)C[C@H]2CC)c(C(=O)N[C@@H]2CCNC2)c1` [Compound 1-101, 5-(2-ethoxypyridin-3-yl)-2-[(2R)-2-ethyl-4-{4-fluoro-2-[(3S)-3-(methylamino)pyrrolidin-1-yl]benzoyl}piperazin-1-yl]-N-[(3R)-pyrrolidin-3-yl]benzamide], the Ki was < 0.01 µM.
With `CCOc1ncccc1-c1ccc(N2CCN(C(=O)c3ccc(C)cc3N3CC[C@H](N(C)C)C3)C[C@H]2CC)c(C(=O)NCCN)c1` [Compound 1-68, N-(2-aminoethyl)-2-[(2R)-4-{2-[(3S)-3-(dimethylamino)pyrrolidin-1-yl]-4-methylbenzoyl}-2-ethylpiperazin-1-yl]-5-(2-ethoxypyridin-3-yl)benzamide] the figure was < 0.01 µM.
For the compound `CCOc1ccccc1-c1ccc(N2CCN(C(=O)N3CCC[C@@H]3C(C)(C)C)C[C@H]2CC)c(C(=O)N[C@@H]2CCNC2)n1` [Compound 1-356, 3-[(2R)-4-[(2R)-2-tert-butylpyrrolidine-1-carbonyl]-2-ethylpiperazin-1-yl]-6-(2-ethoxyphenyl)-N-[(3R)-pyrrolidin-3-yl]pyridine-2-carboxamide], the Ki is < 0.01 µM.
With `CCOc1ncccc1-c1ccc(N2CCN(C(=O)c3ccc(Cl)cc3C(F)(F)F)C[C@H]2CC)c(C(=O)N[C@@H]2CN3CCC2CC3)n1` [Compound 1-398, N-[(3S)-1-azabicyclo[2.2.2]octan-3-yl]-5-[(2R)-4-[4-chloro-2-(trifluoromethyl)benzoyl]-2-ethylpiperazin-1-yl]-2′-ethoxy-[2,3′-bipyridine]-6-carboxamide] the figure was < 0.01 µM.

These data come from patent US10981894B2, “Melanocortin subtype-2 receptor (MC2R) antagonists and uses thereof” (Crinetics Pharmaceuticals, Inc., priority 2018, dated 2021).
